Data reported in US20250073206A1, “SOLID FORMS OF […] […] USES THEREOF” (Sensorium Therapeutics, Inc., priority 2021, published 2025).
Converted amounts (≈) assume the structure as drawn.

What was measured:
[1] = Approximate solubility by visual observation at 25° C.; type: physicochemical; conditions: thermodynamic from solid
Experimental: About 5 mg of batch 1 was weighed into a 2 mL glass vial and aliquots of 20 μL of each solvent were added to get a clear solution. Max. volume of each solvent added was 1 mL.

[2] = target: sodium-dependent serotonin transporter (SERT) (Homo sapiens, UniProt P31645); conditions: naturally occurring, from Sceletium tortuosum; cited from earlier work
Sequence of sodium-dependent serotonin transporter (SERT) (P31645 whole entry, species assumed): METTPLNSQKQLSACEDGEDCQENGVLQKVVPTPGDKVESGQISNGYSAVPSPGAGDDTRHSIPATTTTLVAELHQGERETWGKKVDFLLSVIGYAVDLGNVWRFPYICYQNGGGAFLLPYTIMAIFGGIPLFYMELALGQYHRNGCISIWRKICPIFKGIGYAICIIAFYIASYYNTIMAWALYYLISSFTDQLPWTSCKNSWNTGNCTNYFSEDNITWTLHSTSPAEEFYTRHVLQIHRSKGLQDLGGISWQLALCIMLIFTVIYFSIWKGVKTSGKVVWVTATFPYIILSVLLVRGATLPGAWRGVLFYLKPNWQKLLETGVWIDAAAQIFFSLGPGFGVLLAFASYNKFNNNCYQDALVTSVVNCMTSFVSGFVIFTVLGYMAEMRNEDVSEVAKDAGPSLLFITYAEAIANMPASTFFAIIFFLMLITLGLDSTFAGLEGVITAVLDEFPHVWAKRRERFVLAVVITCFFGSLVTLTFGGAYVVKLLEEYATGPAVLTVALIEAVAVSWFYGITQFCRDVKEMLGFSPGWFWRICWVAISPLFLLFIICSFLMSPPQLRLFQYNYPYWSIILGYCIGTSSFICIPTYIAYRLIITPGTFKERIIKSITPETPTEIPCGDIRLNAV

`COc1ccc([C@@]23CCC(=O)C[C@@H]2N(C)CC3)cc1OC` [(−) mesembrine, 3a-(3,4-dimethoxyphenyl)-octahydro-1-methyl-6H-indol-6-one] gave a solubility ([1]; organic solvent or mixture, Acetone) of 125 to 250 mg/mL (≈ 432 to 864 mM), a solubility ([1]; organic solvent or mixture, Acetonitrile) of 125 to 250 mg/mL (≈ 432 to 864 mM) and a solubility ([1]; organic solvent or mixture, Dichloromethane) of 125 to 250 mg/mL (≈ 432 to 864 mM). For the same compound, the solubility ([1]; organic solvent or mixture, Ethanol) was 125 to 250 mg/mL (≈ 432 to 864 mM), the solubility ([1]; organic solvent or mixture, Ethyl acetate) was 125 to 250 mg/mL (≈ 432 to 864 mM) and the solubility ([1]; organic solvent or mixture, Methanol) was 125 to 250 mg/mL (≈ 432 to 864 mM). For the same compound, the solubility ([1]; organic solvent or mixture, Tetrahydrofuran) was 125 to 250 mg/mL (≈ 432 to 864 mM), the solubility ([1]; organic solvent or mixture, Toluene) was 7 to 10 mg/mL (≈ 24.2 to 34.6 mM) and the solubility ([1]; organic solvent or mixture, t-Butyl methyl ether) was 125 to 250 mg/mL (≈ 432 to 864 mM). The solubility ([1]; Water) was 125 to 250 mg/mL (≈ 432 to 864 mM) and the “serotonin (5-HT) uptake inhibitory activity” value [2] was “serotonin (5-HT) uptake inhibitory activity”.
